# Results: PubChem BioAssay AID1963450 (Molecular Pharmacology Branch, DTP, NCI, 2024)
# Tested on: 556581-035-R-J1-PDC complex spheroid growth
# Experiment: Anticancer human tumor 556581-035-R-J1-PDC patient-derived ovarian carcinoma cell line growth inhibition [Asc]
# Details: for IC50: curve of first compound; for viability, T/C: stronger effect = lower value
# Method in brief: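 Complex solid-tumor spheroids incorporating human endothelial and mesenchymal stem cells received single agents or combinations over half-log dilution ranges anchored to clinical Cmax.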
# [1] = second compound 0.1 µM, first compound 0.0316 µM
# [2] = second compound 0.1 µM, first compound 0.1 µM
# [3] = second compound 0.1 µM, first compound 0.316 µM
# [4] = second compound 0.1 µM, first compound 1 µM
# [5] = second compound 0.316 µM, first compound 0.0316 µM
# [6] = second compound 0.316 µM, first compound 0.1 µM
# [7] = second compound 0.316 µM, first compound 0.316 µM
# [8] = second compound 0.316 µM, first compound 1 µM
# [9] = second compound 1 µM, first compound 0.0316 µM
# [10] = second compound 1 µM, first compound 0.1 µM
# [11] = second compound 1 µM, first compound 0.316 µM
# [12] = second compound 1 µM, first compound 1 µM
# [13] = second compound 3.16 µM, first compound 0.0316 µM
# [14] = second compound 3.16 µM, first compound 0.1 µM
# [15] = second compound 3.16 µM, first compound 0.316 µM
# [16] = second compound 3.16 µM, first compound 1 µM
# [17] = second compound 10 µM, first compound 0.0316 µM
# [18] = second compound 10 µM, first compound 0.1 µM
# [19] = second compound 10 µM, first compound 0.316 µM
# [20] = second compound 10 µM, first compound 1 µM
# 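Further: spheroids exposed to agents for 7 days before viability read.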
smiles,measurement,setting,value
C#Cc1c(F)ccc2cc(O)cc(-c3ncc4c(N5CC6CCC(C5)N6)nc(OCC56CCCN5CC(F)C6)nc4c3F)c12 (stereo not given) + Cc1c(S(C)(=O)=O)c(-c2cc(F)cc(N3CCN(c4ccc(NS(=O)(=O)c5ccc(NC(CCN6CCC(C(=O)OCCCP(=O)(O)O)CC6)CSc6ccccc6)c(S(=O)(=O)C(F)(F)F)c5)cc4)CC3)c2)c(-c2ccc(Cl)cc2)n1C(C)C,IC50,second compound 0.1 µM,> 10000 nM
same,IC50,second compound 0.316 µM,> 10000 nM
same,IC50,second compound 1 µM,7570 nM
same,IC50,second compound 3.16 µM,8820 nM
same,IC50,second compound 10 µM,1210 nM
same,"viability, T/C",[1],82%
same,"viability, T/C",[2],83.8%
same,"viability, T/C",[3],63.6%
same,"viability, T/C",[4],64.5%
same,"viability, T/C","second compound 0.1 µM, first compound 3.16 µM",79.7%
same,"viability, T/C","second compound 0.1 µM, first compound 10 µM",71.9%
same,"viability, T/C",[5],55%
same,"viability, T/C",[6],79.5%
same,"viability, T/C",[7],81.9%
same,"viability, T/C",[8],70.1%
same,"viability, T/C","second compound 0.316 µM, first compound 3.16 µM",63.6%
same,"viability, T/C","second compound 0.316 µM, first compound 10 µM",63.5%
same,"viability, T/C",[9],73.3%
same,"viability, T/C",[10],65.3%
same,"viability, T/C",[11],63.8%
same,"viability, T/C",[12],65.1%
same,"viability, T/C","second compound 1 µM, first compound 3.16 µM",59.2%
same,"viability, T/C","second compound 1 µM, first compound 10 µM",46.9%
same,"viability, T/C",[13],51.7%
same,"viability, T/C",[14],68.3%
same,"viability, T/C",[15],67.3%
same,"viability, T/C",[16],60.7%
same,"viability, T/C","second compound 3.16 µM, first compound 3.16 µM",57.8%
same,"viability, T/C","second compound 3.16 µM, first compound 10 µM",49.1%
same,"viability, T/C",[17],64.8%
same,"viability, T/C",[18],58.2%
same,"viability, T/C",[19],59.9%
same,"viability, T/C",[20],47%
same,"viability, T/C","second compound 10 µM, first compound 3.16 µM",47.3%
same,"viability, T/C","second compound 10 µM, first compound 10 µM",39.6%
CNC(C)C(=O)NC1CN(S(=O)(=O)c2cccc(S(=O)(=O)N3CCC4CCC(C(=O)NC(c5ccccc5)c5ccccc5)N4C(=O)C(NC(=O)C(C)NC)C3)c2)CCC2CCC(C(=O)NC(c3ccccc3)c3ccccc3)N2C1=O (stereo not given) + Cc1c(S(C)(=O)=O)c(-c2cc(F)cc(N3CCN(c4ccc(NS(=O)(=O)c5ccc(NC(CCN6CCC(C(=O)OCCCP(=O)(O)O)CC6)CSc6ccccc6)c(S(=O)(=O)C(F)(F)F)c5)cc4)CC3)c2)c(-c2ccc(Cl)cc2)n1C(C)C,IC50,second compound 0.1 µM,87.3 nM
same,IC50,second compound 0.316 µM,73.8 nM
same,IC50,second compound 1 µM,49.9 nM
same,IC50,second compound 3.16 µM,6.27 nM
same,IC50,second compound 10 µM,< 3.16 nM
same,"viability, T/C","second compound 0.1 µM, first compound 0.00316 µM",68.6%
same,"viability, T/C","second compound 0.1 µM, first compound 0.01 µM",69.5%
same,"viability, T/C",[1],60%
same,"viability, T/C",[2],48%
same,"viability, T/C",[3],49.1%
same,"viability, T/C",[4],41.1%
same,"viability, T/C","second compound 0.316 µM, first compound 0.00316 µM",60.2%
same,"viability, T/C","second compound 0.316 µM, first compound 0.01 µM",73.3%
same,"viability, T/C",[5],68.4%
same,"viability, T/C",[6],43.7%
same,"viability, T/C",[7],41%
same,"viability, T/C",[8],26%
same,"viability, T/C","second compound 1 µM, first compound 0.00316 µM",61.8%
same,"viability, T/C","second compound 1 µM, first compound 0.01 µM",53.2%
same,"viability, T/C",[9],67.3%
same,"viability, T/C",[10],33.5%
same,"viability, T/C",[11],28.6%
same,"viability, T/C",[12],26.8%
same,"viability, T/C","second compound 3.16 µM, first compound 0.00316 µM",49.7%
same,"viability, T/C","second compound 3.16 µM, first compound 0.01 µM",54%
same,"viability, T/C",[13],34.7%
same,"viability, T/C",[14],35.5%
same,"viability, T/C",[15],24.5%
same,"viability, T/C",[16],24.5%
same,"viability, T/C","second compound 10 µM, first compound 0.00316 µM",49.4%
same,"viability, T/C","second compound 10 µM, first compound 0.01 µM",35.1%
same,"viability, T/C",[17],42.4%
same,"viability, T/C",[18],33.6%
same,"viability, T/C",[19],27.8%
same,"viability, T/C",[20],30.7%
Cc1nc(N2CCC3(CC2)COC(C)C3N)c(CO)nc1Sc1ccnc(N)c1Cl (stereo not given) + Cc1c(S(C)(=O)=O)c(-c2cc(F)cc(N3CCN(c4ccc(NS(=O)(=O)c5ccc(NC(CCN6CCC(C(=O)OCCCP(=O)(O)O)CC6)CSc6ccccc6)c(S(=O)(=O)C(F)(F)F)c5)cc4)CC3)c2)c(-c2ccc(Cl)cc2)n1C(C)C,IC50,second compound 0.1 µM,544 nM
same,IC50,second compound 0.316 µM,389 nM
same,IC50,second compound 1 µM,266 nM
same,IC50,second compound 3.16 µM,97 nM
same,IC50,second compound 10 µM,14.1 nM
same,"viability, T/C","second compound 0.1 µM, first compound 0.00949 µM",81.7%
same,"viability, T/C","second compound 0.1 µM, first compound 0.03 µM",90.2%
same,"viability, T/C","second compound 0.1 µM, first compound 0.0949 µM",62.4%
same,"viability, T/C","second compound 0.1 µM, first compound 0.3 µM",57.5%
same,"viability, T/C","second compound 0.1 µM, first compound 0.949 µM",47%
same,"viability, T/C","second compound 0.1 µM, first compound 3 µM",36.2%
same,"viability, T/C","second compound 0.316 µM, first compound 0.00949 µM",72.5%
same,"viability, T/C","second compound 0.316 µM, first compound 0.03 µM",64.4%
same,"viability, T/C","second compound 0.316 µM, first compound 0.0949 µM",54.9%
same,"viability, T/C","second compound 0.316 µM, first compound 0.3 µM",53.8%
same,"viability, T/C","second compound 0.316 µM, first compound 0.949 µM",47.6%
same,"viability, T/C","second compound 0.316 µM, first compound 3 µM",32.8%
same,"viability, T/C","second compound 1 µM, first compound 0.00949 µM",62%
same,"viability, T/C","second compound 1 µM, first compound 0.03 µM",63.8%
same,"viability, T/C","second compound 1 µM, first compound 0.0949 µM",59.5%
same,"viability, T/C","second compound 1 µM, first compound 0.3 µM",49.1%
same,"viability, T/C","second compound 1 µM, first compound 0.949 µM",31.2%
same,"viability, T/C","second compound 1 µM, first compound 3 µM",30.6%
same,"viability, T/C","second compound 3.16 µM, first compound 0.00949 µM",55.5%
same,"viability, T/C","second compound 3.16 µM, first compound 0.03 µM",60.5%
same,"viability, T/C","second compound 3.16 µM, first compound 0.0949 µM",50.3%
same,"viability, T/C","second compound 3.16 µM, first compound 0.3 µM",35.7%
same,"viability, T/C","second compound 3.16 µM, first compound 0.949 µM",39.9%
same,"viability, T/C","second compound 3.16 µM, first compound 3 µM",29.8%
same,"viability, T/C","second compound 10 µM, first compound 0.00949 µM",50.8%
same,"viability, T/C","second compound 10 µM, first compound 0.03 µM",48.7%
same,"viability, T/C","second compound 10 µM, first compound 0.0949 µM",43.7%
same,"viability, T/C","second compound 10 µM, first compound 0.3 µM",30.7%
same,"viability, T/C","second compound 10 µM, first compound 0.949 µM",37.4%
same,"viability, T/C","second compound 10 µM, first compound 3 µM",22.3%
